Source: patent US20210147932A1, “FLUORESCENT PROBES FOR QUANTIFICATION OF DNA DAMAGE AND REPAIR” (The Board of Trustees of the Leland Stanford Junior …, priority 2019, published 2021)
Several values for one entry are separate records, joined by “and”; a condition that tells them apart may be missing. Equal values may be shown once.

Legend:
AP-DNA = experiment: Oxime formation kinetics of probe with AP-DNA; format: biochemical
Description: FIG. 3 provides representative plots for calculations of k2 for Compound (1) (CCVJ1) under various buffer conditions with oligo 15. Plots were fitted in OriginPro 8.5 according to the equation derived by Larsen et. al.^5 for second-order rate constants of oxime formation. Apparent second-order rate constants were calculated as the average of three replicates.
FIG. 5A provides fluorescence real-times responses for oxime formation under varied conditions. The Time course of oxime formation between Compound (1) (CCVJ1) (5 μM) and AP-DNA (20 μM) under varied buffer conditions (50 mM) is shown. Ionic strength adjusted to 150 mM with NaCl
Next the reaction rates with CCVJ1 were evaluated. To measure oxime formation kinetics, 5 μM CCVJ1 was reacted with 20 μM AP DNA, and the resulting fluorescence time course was used to determine second-order rate constants by nonlinear regression analysis. Tris buffer was selected since it is commonly used in glycosylase assays with a salt concentration of 100 mM NaCl.
In addition to Tris buffer, oxime formation kinetics were also measured for CCVJ1 with AP DNA in a solution of a catalytic amine buffer previously shown to accelerate oxime formation. To this end, it was employed 50 mM N,N-dimethylethylenediamine (DEDA)•HCl buffered to a pH of 7.0 in place of the above Tris buffers. […] Such rapid rates of oxime formation at neutral pH are unprecedented for unactivated aldehydes.
In addition to the 5′ and 3′ neighboring bases, studies were done of the effect of the orphaned base Z paired opposite the abasic site on the UBER probe system (FIG. 10, panels C-D). Using the sequence where X=C and Y=G, the identity was varied of the base Z opposite the AP site. […] As a result, the smaller pyrimidine bases yielded a greater fluorescence light up response than the larger purine bases. It was also observed a strong effect by the opposing base on the rate of oxime formation (FIG. 10, panel D). […] This trend is in contrast to the neighboring base effect discussed above in which stronger stacking bases accelerated the rate of oxime formation.
General procedure for creating AP site DNA: A deoxyuridine containing oligonucleotide (typically 5-20 μM) was treated with 10 U/mL E. coli UDG (New England Biolabs) for 10 minutes at 37° C. in buffer to create AP site containing DNA (see below for MALDI-TOF confirmation). The hairpin was then reacted with probe from a DMSO stock solution (final DMSO concentration <5%).
Fluorescence time courses: Unless otherwise stated, fluorescence time courses were collected on a Fluoroskan Ascent Microplate Fluorometer (Thermo Fisher Scientific) with black, non-binding 384 well plates (Greiner) at a reaction volume of 60 μL with 50 mM Tris buffer pH 7 (ionic strength adjusted to 100 mM with NaCl) with a fluorescein filter set (Ex. 485, Em. 538).

[1] = Absorption spectra of free and AP site bound probe; format: physicochemical; conditions: in buffer
Description: FIG. 24 provides normalized absorption spectra of free Compound (1) (CCJV1 probe) and AP site bound probe in buffer. Oxime formation with the AP site red shifts absorption from a λmax of 454 nm in the unbound probe to a λmax of 468 nm in the bound probe. The extinction coefficient calculated for the unbound probe is 30,400 M^−1·cm^−1 and 28,700 M^−1·cm^−1 for the bound probe.
Instrumentation: NMR spectra were acquired on a Varian Inova 400 (400 MHz) or 500 (500 MHz) spectrometer and chemical shift reported in parts per million (6) relative to internal standard TMS (0 ppm). Small molecule mass spectra were measured on a Waters 2795 system via electrospray ionization (ESI) with a ZQ single quadrupole MS. Oligonucleotide mass spectra were acquired by MALDI-TOF using a Bruker Microflex MALDI-TOF in negative ion mode. Ultraviolet spectra were measured on a Cary 300. Fluorescence emission and excitation spectra were recorded on a Jobin Yvon-Spex Fluorolog 3 spectrometer with an external temperature controller. Fluorescence time courses were collected on a Fluoroskan Ascent Microplate Fluorometer (Thermo Fisher Scientific). Oligonucleotide concentrations were determined by UV-absorption on a NanoDrop One Microvolume UV-Vis Spectrophotometer (ThermoFisher Scientific). DNA synthesis was carried out on an Applied Biosystems 394 DNA/RNA synthesizer.

## N#C/C(=C\c1cc2c3c(c1)CCCN3CCC2)C(=O)NCCON [CCVJ1]
AP-DNA; AP hairpin X=C, Y=G, Z=C
  rate of oxime formation with optimal neighboring bases: 320 ± 13 M⁻¹ s⁻¹
AP-DNA; DEDA pH 7 (50 mM N,N-dimethylethylenediamine HCl)
  Apparent second-order rate constant of oxime formation k2: 440 M⁻¹ s⁻¹ and 440 ± 12 M⁻¹ s⁻¹
AP-DNA; Tris pH 7, 5 μM CCVJ1, 20 μM AP DNA
  Apparent second-order rate constant of oxime formation k2: 147 M⁻¹ s⁻¹ and 147 ± 8 M⁻¹ s⁻¹
AP-DNA; Tris pH 7.5
  Apparent second-order rate constant of oxime formation k2: 51 ± 2 M⁻¹ s⁻¹
AP-DNA; Tris pH 8
  Apparent second-order rate constant of oxime formation k2: 29 ± 1 M⁻¹ s⁻¹
AP-DNA; pH 7.0
  rate in DEDA buffer, times faster than in Tris: ~3 times
  rate, times faster than typical oxime formation in neutral aqueous buffer: 10^3-10^4 times
[1]
  absorption λmax, AP site bound probe: 468 nm
  absorption λmax, unbound probe: 454 nm
  extinction coefficient, bound probe: 28,700 M^−1·cm^−1
  extinction coefficient, unbound probe: 30,400 M^−1·cm^−1
